Measurements as given in patent publication US12121518B2, “PARP-1 and methods of use thereof” (The Board of Supervisors of Louisiana State University and …, priority 2017, dated 2024).
“Also recorded” adds a separate entry of the source.

What was measured:
ARG-1, iNOS, COX2 = test: Immunoblot of ARG-1, iNOS, COX2 and related factors in bone marrow-derived MDSCs; format: cell-based, mouse
Description: (I) Positive control for PARP-1 trapping.
Cell fractionation, protein extraction and immunoblot analysis—Tumor tissues or cells were harvested and homogenized in RIPA lysis buffer (Santa Cruz Biotechnology) containing a cocktail of protease and phosphatase inhibitors on ice. Nuclear fractions were isolated as described (35) and the remaining chromatin pellets were washed then suspended in an isotonic buffer followed by sonication. […] Protein expression signals developed by ECL (Pierce, ThermoFisher Scientific) were determined by a G:Box Gel Image Analysis System (Syngene, Cambridge, UK) equipped with the GeneSys image capture software.

KOPT-K1 cells = test: KOPT-K1 cell viability (Trypan exclusion assay); format: cell-based; conditions: ultra-low doses, 2.5 days
Procedure: (§1) Cell viability was assessed 2.5 days after treatment by Trypan exclusion assay. Statistics are not included.
as §1
The ultimate goal of this therapy is maximal inhibition of PARP to achieve “synthetic lethality” taking advantage of the inability of BRCA-deficient cancer cells to repair DNA. […] This was tested in three different leukemia cell lines.

MC-38 cell-based tumors = test: MC-38 cell-based syngeneic colon cancer mouse model; format: in vivo
Description: Mice that received vehicle increased in size in a time-dependent manner and were sacrificed at day 16.
For the syngeneic tumor models, six to eight weeks old WT, PARP-1^+/−, or PARP-1^−/− mice were subcutaneously inoculated with 2.5×10^5 MC-38 cells. In some experiments, MC-38 cells transfected with p193-PGK-SB100X and pKT2PGK-BsdGFP_CLP-Luc plasmids (flanked by Sleeping Beauty transposons) and sorted by FACS. Selected cells were then engrafted onto mice as described above. When tumors became palpable (at day 4-6), WT mice were randomized and assigned to the different experimental groups. […] Tumor volumes were measured with a digital caliper or assessed using GFP/Luc-Biophotonic Imaging (Xenogen IVIS200, PerkinElmer, Boston, MA). Tumors were measured by the greatest longitudinal diameter (length) and the greatest transverse diameter (width) using a digital caliper. Tumor volumes were calculated using the following formula: tumor volume=(length×width^2)/2. For luciferase imaging, tumor-bearing mice received 150 mg/kg of D-luciferin potassium salt solution (PerkinElmer, Boston, MA) i.p. five minutes prior to anesthetic induction and imaging. Bioluminescence within a predetermined region of interest (ROI) on each mouse was quantified in photons/sec/cm^2/sr. At the end of the protocol (day 20-24), mice were sacrificed and tumors were harvested for further processing and analysis. For the adoptive transfer experiments, 3×10^6 BM-MDSCs derived from WT mice or vehicle were injected, intratumorally, into WT or PARP-1^+/− mice. The MDSCs were delivered at five injection sites at days 8 and 16 following engraftment of MC-38 cells.
Tissue processing, immunohistochemistry, immunofluorescence and cytokines measurement—Some tissues were fixed in buffered formalin (10%), paraffin-embedded, then sectioned. Serial sections were subjected to H&E staining, immunohistochemistry (IHC) or immunofluorescence, as described (33), with antibodies to PCNA (Novusbio, Littleton, CO), COX-2 (Santa Cruz Biotechnology, Santa Cruz, CA), ICAM-1 (Santa Cruz Biotechnology), CD8 (Santa Cruz Biotechnology), or Gr1 (eBioscience, San Diego, USA) as previously described (34). Some of the sections were subjected to immunofluorescence with antibodies to CD8 or Gr1. Blood, collected by cardiac puncture, was run through a Microtainer Serum Separator tube (BD, Franklin Lake, NJ). The collected sera were immediately stored at −80° C. for future use and analysis. Cytokine levels were assessed for TNF-α (ELM-TNFα-1), IL-6 (ELM-IL-6-1), and MCP-1 (ELM-MCP1) by ELISA (all from RayBiotech, Norcross, GA) according to the manufacturer's instructions and recommendations.

steroid-resistant asthma = test: Ovalbumin/LPS/IFNγ-based mouse model of steroid-resistant asthma; format: in vivo; conditions: 5 mg/kg
Procedure: (§2) Balb/c mice were sensitized by i.p. injection of 20 μg of Ova in 2.25 mg aluminium hydroxide on days 1 and 14. Steroid resistance was induced by intranasal instillation of Lps (10 μg/mouse) on day 27. Mice were treated with s.c injection of dexmethasone (5 mg/kg) on days 29 and 30. Mice were challenged with aerosolized 1% OVA on days 28, 29, 30 for 20 minutes. Airway hyper responsiveness was measured using plesthesmography 24 hours after the last OVA challenge. Statistics are not included.
as §2, with “Balb I c” for “Balb/c”, “µg/mouse)” for “μg/mouse)”, “All mice were euthanized 48” for “Airway hyper responsiveness was measured using plesthesmography 24”, “challenge then subjected to broncholaveolar lavage. Inflammatory cells were differentiated and assessed using Diff Quick staining.” for “challenge.”
as §2, with “All mice were euthanized 48” for “Airway hyper responsiveness was measured using plesthesmography 24”, “challenge. Cytokines were measured in the collected serum and BAL fluid using multiplex assay. And IgE production was assessed busing sandwich ELISA.” for “challenge.”
Objective: To investigate whether PARP inhibition could restore steroid sensitivity to block LPS/IFN-γ-induced neutrophilia and AHR in steroid-resistant asthma model of the disease. Methods: An ovalbumin/LPS/IFNγ-based model of steroid-resistant murine asthma and an airway epithelial cell culture system were used in this study.

CD3+ T cells = test: Proliferation of CD3/CD28-stimulated T cells in the absence of MDSCs; conditions: 72 h, no MDSCs
Procedure: After 96 h, cells were collected and stained with antibodies to CD11b or Gr1 and assessed by FACS (A) or co-cultured with CD3/CD28-stimulated and CFSC-labeled WT CD3^+ T cells for 72 h followed by an assessment of proliferation by FACS (B).

[1] = test system: steroid-resistant leukemia cells; test: Steroid-resistant leukemia cells: cell killing and NOTCH levels; format: cell-based; conditions: 4 nM

For O=C(c1cc(Cc2n[nH]c(=O)c3ccccc23)ccc1F)N1CCN(C(=O)C2CC2)CC1 [olaparib], the “increase in ARG-1, iNOS and COX2 during MDSC differentiation” value (ARG-1, iNOS, COX2; 4 nM, single treatment 24 h after plating) was “sufficient to prevent the increase in ARG-1, iNOS, and COX2”, the “ARG-1 and iNOS in MDSCs stimulated by co-culture with MC-38 cells” value (ARG-1, iNOS, COX2; low and high concentrations (4 nM, 1 μM)) was “inhibitory effects” and the “overall levels of STAT3 (and phosphorylated forms)” value (ARG-1, iNOS, COX2; low concentration 4 nM) was “increased the overall levels of STAT3”. For the same compound, the “steroid resistance (viability with dexamethasone)” value (KOPT-K1 cells) was “reverse steroid resistance”, the tumor size (MC-38 cell-based tumors; 0.2 mg/kg, WT mice, from palpable tumors) was “barely increased above the size the tumors at the day 5; also recorded: more effective at reducing the tumor burden” and the tumor size (MC-38 cell-based tumors; 1 mg/kg, WT mice, from palpable tumors (day 6)) was “very effective at blocking tumor growth”. For the same compound, the tumor size (MC-38 cell-based tumors; 5 mg/kg, WT mice, from palpable tumors) was “relatively smaller than those of WT; also recorded: significant reduction in the size of MC-38 cell-based tumors”, the “tumor progression (tumor volume)” value (MC-38 cell-based tumors; WT mice, olaparib 0.2 mg/kg on alternate days, anti-PD-1 100 μg/mouse every 4 days, alone or combined) was “significantly reduced the progression of MC-38 tumors” and the “intratumoral ICAM-1 immunoreactivity as a surrogate for inflammation” value (MC-38 cell-based tumors; both doses (0.2 and 5 mg/kg)) was “reduction in inflammation”. The “systemic inflammation (TNF-α, IL-6 and MCP-1 in sera)” value (MC-38 cell-based tumors; both doses (0.2 and 5 mg/kg)) was “moderately reduced”, the “OVA-specific IgE secretion in BALF and serum” value (steroid-resistant asthma) was “marked reduction in OVA-specific IgE secretion” and the Th2 cytokine production (steroid-resistant asthma) was “marked reduction in Th2 cytokine production”. The “established steroid-resistant asthma manifestation” value (steroid-resistant asthma) was “reversed the established steroid-resistant asthma manifestation in mice”, the “infiltration of inflammatory cells into the airways” value (steroid-resistant asthma) was “blocked the infiltration of inflammatory cells into the airways” and the “proliferation of T cells” value (CD3+ T cells; high concentration 5 μM) was “significant effects on T-cell proliferation”. For the same compound, the “proliferation of T cells” value (CD3+ T cells; low concentration 4 nM) was “no effect on proliferation of T cells”, the “proliferation of T cells” value (CD3+ T cells; moderate concentration 0.1 μM) was “significant effects on T-cell proliferation” and the “sensitivity of the cells to dexamethasone” value [1] was “completely reversed sensitivity of the cells to dexamethasone”.
